Test results from PubChem BioAssay (NCI).
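GI50: concentration for 50% inhibition of growth. TGI denotes the concentration required for complete inhibition of growth.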

Key:
Assay in all cases: growth of human tumour cells (NCI), 384-well format
A498 renal = system: A498 renal
A549 NSCLC = system: A549 NSCLC
ACHN renal = system: ACHN renal
BT-549 breast = system: BT-549 breast
CAKI-1 renal = system: CAKI-1 renal
COLO 205 colon = system: COLO 205 colon
DU-145 prostate = system: DU-145 prostate
EKVX NSCLC = system: EKVX NSCLC
HCC-2998 colon = system: HCC-2998 colon
HCT-116 colon = system: HCT-116 colon
HCT-15 colon = system: HCT-15 colon
HL-60(TB) leukemia = system: HL-60(TB) leukemia
HOP-62 NSCLC = system: HOP-62 NSCLC
HOP-92 NSCLC = system: HOP-92 NSCLC
HS 578T breast = system: HS 578T breast
HT29 colon = system: HT29 colon
IGROV1 ovarian = system: IGROV1 ovarian
KM12 colon = system: KM12 colon
LOX IMVI melanoma = system: LOX IMVI melanoma
M14 melanoma = system: M14 melanoma
MALME-3M melanoma = system: MALME-3M melanoma
MCF7 breast = system: MCF7 breast
MDA-MB-231 breast = system: MDA-MB-231 breast
MDA-MB-435 melanoma = system: MDA-MB-435 melanoma
MDA-MB-468 breast = system: MDA-MB-468 breast
MOLT-4 leukemia = system: MOLT-4 leukemia
NCI-H226 lung = system: NCI-H226 lung
NCI-H23 lung = system: NCI-H23 lung
NCI-H322M lung = system: NCI-H322M lung
NCI-H460 NSCLC = system: NCI-H460 NSCLC
NCI-H522 lung = system: NCI-H522 lung
NCI/ADR-RES ovarian = system: NCI/ADR-RES ovarian
OVCAR-3 ovarian = system: OVCAR-3 ovarian
OVCAR-4 ovarian = system: OVCAR-4 ovarian
OVCAR-5 ovarian = system: OVCAR-5 ovarian
OVCAR-8 ovarian = system: OVCAR-8 ovarian
PC-3 prostate = system: PC-3 prostate
RPMI-8226 leukemia = system: RPMI-8226 leukemia
RXF 393 renal = system: RXF 393 renal
SF-268 CNS = system: SF-268 CNS
SF-295 CNS = system: SF-295 CNS
SF-539 CNS = system: SF-539 CNS
SK-MEL-28 melanoma = system: SK-MEL-28 melanoma
SK-MEL-5 melanoma = system: SK-MEL-5 melanoma
SK-OV-3 ovarian = system: SK-OV-3 ovarian
SN12C renal = system: SN12C renal
SNB-19 CNS = system: SNB-19 CNS
SNB-75 CNS = system: SNB-75 CNS
SR leukemia = system: SR leukemia
T-47D breast = system: T-47D breast
TK-10 renal = system: TK-10 renal
U251 glioblastoma = system: U251 glioblastoma
UACC-257 melanoma = system: UACC-257 melanoma
UACC-62 melanoma = system: UACC-62 melanoma

SMILES: Clc1ccc(N2CCC(N3CCCC3)CC2)cc1-c1nc2ccccc2[nH]1
- GI50 (A498 renal): 14.4 µM
- TGI (A498 renal): 27.6 µM
- GI50 (A549 NSCLC): 17.2 µM
- TGI (A549 NSCLC): 32.3 µM
- GI50 (ACHN renal): 16.6 µM
- TGI (ACHN renal): 30.8 µM
- GI50 (BT-549 breast): 8.67 µM
- TGI (BT-549 breast): 20.9 µM
- GI50 (CAKI-1 renal): 16.9 µM
- TGI (CAKI-1 renal): 33.4 µM
- GI50 (COLO 205 colon): 14.3 µM
- TGI (COLO 205 colon): 27.6 µM
- GI50 (DU-145 prostate): 15.3 µM
- TGI (DU-145 prostate): 32.5 µM
- GI50 (EKVX NSCLC): 14.2 µM
- TGI (EKVX NSCLC): 28.1 µM
- GI50 (HCC-2998 colon): 12.5 µM
- TGI (HCC-2998 colon): 25.3 µM
- GI50 (HCT-116 colon): 11.7 µM
- TGI (HCT-116 colon): 24.7 µM
- GI50 (HCT-15 colon): 3.84 µM
- TGI (HCT-15 colon): 14.1 µM
- GI50 (HL-60(TB) leukemia): 12.3 µM
- TGI (HL-60(TB) leukemia): 25 µM
- GI50 (HOP-62 NSCLC): 16.1 µM
- TGI (HOP-62 NSCLC): 29.8 µM
- GI50 (HOP-92 NSCLC): 18.4 µM
- TGI (HOP-92 NSCLC): 32.8 µM
- GI50 (HS 578T breast): 14.8 µM
- TGI (HS 578T breast): 28.1 µM
- GI50 (HT29 colon): 10.9 µM
- TGI (HT29 colon): 23.6 µM
- GI50 (IGROV1 ovarian): 15.5 µM
- TGI (IGROV1 ovarian): 29.5 µM
- GI50 (KM12 colon): 14.8 µM
- TGI (KM12 colon): 29.1 µM
- GI50 (LOX IMVI melanoma): 16.5 µM
- TGI (LOX IMVI melanoma): 30.2 µM
- GI50 (M14 melanoma): 18 µM
- TGI (M14 melanoma): 32 µM
- GI50 (MALME-3M melanoma): 13 µM
- TGI (MALME-3M melanoma): 25.8 µM
- GI50 (MCF7 breast): 12.1 µM
- TGI (MCF7 breast): 25.4 µM
- GI50 (MDA-MB-231 breast): 17 µM
- TGI (MDA-MB-231 breast): 31.2 µM
- GI50 (MDA-MB-435 melanoma): 17.1 µM
- TGI (MDA-MB-435 melanoma): 30.9 µM
- GI50 (MDA-MB-468 breast): 14.1 µM
- TGI (MDA-MB-468 breast): 27.3 µM
- GI50 (MOLT-4 leukemia): 16.5 µM
- TGI (MOLT-4 leukemia): 30.3 µM
- GI50 (NCI-H226 lung): 15.2 µM
- TGI (NCI-H226 lung): 28.6 µM
- GI50 (NCI-H23 lung): 14.1 µM
- TGI (NCI-H23 lung): 27.7 µM
- GI50 (NCI-H322M lung): 14.3 µM
- TGI (NCI-H322M lung): 32 µM
- GI50 (NCI-H460 NSCLC): 17.2 µM
- TGI (NCI-H460 NSCLC): 31.4 µM
- GI50 (NCI-H522 lung): 17.7 µM
- TGI (NCI-H522 lung): 31.6 µM
- GI50 (NCI/ADR-RES ovarian): 15.4 µM
- TGI (NCI/ADR-RES ovarian): 32.5 µM
- GI50 (OVCAR-3 ovarian): 14.6 µM
- TGI (OVCAR-3 ovarian): 28 µM
- GI50 (OVCAR-4 ovarian): 11.9 µM
- TGI (OVCAR-4 ovarian): 25.9 µM
- GI50 (OVCAR-5 ovarian): 15.8 µM
- TGI (OVCAR-5 ovarian): 30.1 µM
- GI50 (OVCAR-8 ovarian): 16.7 µM
- TGI (OVCAR-8 ovarian): 31.1 µM
- GI50 (PC-3 prostate): 15.1 µM
- TGI (PC-3 prostate): 30.5 µM
- GI50 (RPMI-8226 leukemia): 16.1 µM
- TGI (RPMI-8226 leukemia): 29.7 µM
- GI50 (RXF 393 renal): 15.1 µM
- TGI (RXF 393 renal): 28.6 µM
- GI50 (SF-268 CNS): 16.3 µM
- TGI (SF-268 CNS): 30.1 µM
- GI50 (SF-295 CNS): 17.8 µM
- TGI (SF-295 CNS): 31.8 µM
- GI50 (SF-539 CNS): 16.9 µM
- TGI (SF-539 CNS): 30.9 µM
- GI50 (SK-MEL-28 melanoma): 14.9 µM
- TGI (SK-MEL-28 melanoma): 28.3 µM
- GI50 (SK-MEL-5 melanoma): 4.01 µM
- TGI (SK-MEL-5 melanoma): 16 µM
- GI50 (SK-OV-3 ovarian): 14.1 µM
- TGI (SK-OV-3 ovarian): 27.5 µM
- GI50 (SN12C renal): 11.8 µM
- TGI (SN12C renal): 24.5 µM
- GI50 (SNB-19 CNS): 18.2 µM
- TGI (SNB-19 CNS): 37 µM
- GI50 (SNB-75 CNS): 16.9 µM
- TGI (SNB-75 CNS): 31 µM
- GI50 (SR leukemia): 11.8 µM
- TGI (SR leukemia): 24.2 µM
- GI50 (T-47D breast): 13.9 µM
- TGI (T-47D breast): 27.4 µM
- GI50 (TK-10 renal): 12.4 µM
- TGI (TK-10 renal): 25 µM
- GI50 (U251 glioblastoma): 16.9 µM
- TGI (U251 glioblastoma): 30.7 µM
- GI50 (UACC-257 melanoma): 2 µM
- TGI (UACC-257 melanoma): 4.78 µM
- GI50 (UACC-62 melanoma): 13.5 µM
- TGI (UACC-62 melanoma): 26.6 µM
